Test results taken from patent publication US8367873B2, “Phenyl-substituted bicyclooctane-1,3-dione derivatives” (Bayer Cropscience AG, priority 2008, dated 2013).

Experiments:
Assay type in all cases: in vivo
Lolium multiflorum [1] = test: Herbicidal post-emergence action; details: post-emergence method; for herbicidal effect against LOLMU (Lolium multiflorum): 80 g/ha; for pest or weed control at 80 g/ha: Lolium multiflorum, 504 h, read-out: herbicidal effect against LOLMU (Lolium multiflorum)
Method: (§1) Seeds of monocotylidonous and dicotylidonous weed and crop plants are placed in sandy loam in wood fibre pots, covered with soil and cultivated in a greenhouse under good growth conditions. Two to three weeks after sowing, the test plants are treated at the one-leaf stage. The test compounds, formulated as wettable powders (WP), are then with a water application rate of 600 l/ha (converted), with 0.2% of wetting agent added, sprayed onto the green parts of the plants in different amounts. After the test plants have been kept in the greenhouse under optimum growth conditions for about three weeks, the effect of the preparations is assessed visually in comparison to untreated controls (herbicidal effect in percent: 100% effect=the plants have died, 0% effect=like control plants).

Echinocloa crus-galli [2] = test: Herbicidal post-emergence action; details: post-emergence method; for herbicidal effect against ECHCG (Echinochloa crus-galli): 80 g/ha; for pest or weed control at 80 g/ha: Echinochloa crus-galli, 504 h, read-out: herbicidal effect against ECHCG (Echinochloa crus-galli)
Method: as §1

Alopecurus myosuroides [3] = test: Herbicidal post-emergence action; details: post-emergence method; for herbicidal effect against ALOMY (Alopecurus myosuroides): 80 g/ha; for pest or weed control at 80 g/ha: Alopecurus myosuroides, 504 h, read-out: herbicidal effect against ALOMY (Alopecurus myosuroides)
Method: as §1

Setaria viridis [4] = test: Herbicidal post-emergence action; details: post-emergence method; for herbicidal effect against SETVI (Setaria viridis): 80 g/ha; for pest or weed control at 80 g/ha: Setaria viridis, 504 h, read-out: herbicidal effect against SETVI (Setaria viridis)
Method: as §1

[5] = system: monocotylidonous and dicotylidonous weed and crop plants; test: Herbicidal post-emergence action (other test plants); details: post-emergence method; for herbicidal effect against AVEFA (Avena fatua): 80 g/ha; for pest or weed control at 80 g/ha: 504 h, Avena fatua, read-out: herbicidal effect against AVEFA (Avena fatua)
Method: as §1

Lolium multiflorum [6] = test: Herbicidal pre-emergence action; details: pre-emergence method, 80 g/ha, greenhouse, visual assessment vs untreated controls
Excerpt: (§2) Seeds of monocotylidonous and dicotylidonous weed and crop plants are placed in sandy loam in wood fibre pots and covered with soil. The test compounds, formulated in the form of wettable powders (WP), are then, as an aqueous suspension with a water application rate of 600 l/ha (converted), with 0.2% of wetting agent added, applied to the surface of the covering soil in different amounts.
(§3) After the treatment, the pots are placed in a greenhouse and kept under good growth conditions for the test plants. The visual assessment of the emergence damage on the test plants is carried out after a trial period of three weeks by comparison with the untreated controls (herbicidal effect in percent: 100% effect=the plants have died, 0% effect=like control plants).

Echinocloa crus-galli [7] = test: Herbicidal pre-emergence action; details: pre-emergence method, 80 g/ha, greenhouse, visual assessment vs untreated controls
Excerpt: as §2, §3

Alopecurus myosuroides [8] = test: Herbicidal pre-emergence action; details: pre-emergence method, 80 g/ha, greenhouse, visual assessment vs untreated controls
Excerpt: as §2, §3

Setaria viridis [9] = test: Herbicidal pre-emergence action; details: pre-emergence method, 80 g/ha, greenhouse, visual assessment vs untreated controls
Excerpt: as §2, §3

SMILES	herbicidal effect against LOLMU (Lolium multiflorum) (Lolium multiflorum [1])	herbicidal effect against ECHCG (Echinochloa crus-galli) (Echinocloa crus-galli [2])	herbicidal effect against ALOMY (Alopecurus myosuroides) (Alopecurus myosuroides [3])	herbicidal effect against SETVI (Setaria viridis) (Setaria viridis [4])	herbicidal effect against AVEFA (Avena fatua) [5]	herbicidal effect LOLMU (Lolium multiflorum [6])	herbicidal effect ECHCG (Echinocloa crus-galli [7])	herbicidal effect ALOMY (Alopecurus myosuroides [8])	herbicidal effect SETVI (Setaria viridis [9])	pest or weed control at 80 g/ha (Lolium multiflorum [1])	pest or weed control at 80 g/ha (Echinocloa crus-galli [2])	pest or weed control at 80 g/ha (Alopecurus myosuroides [3])	pest or weed control at 80 g/ha (Setaria viridis [4])	pest or weed control at 80 g/ha [5]
CCc1cc(C)cc(CC)c1C1=C(OC(=O)C(C)(C)C)C2CC3(CC2C1=O)OCCS3 (mixture of isomers) [I-b-19]	40%	100%	20%	80%	30%	100%	100%	100%	90%					
CCc1cc(C)cc(CC)c1C1=C(OC(=O)OC)C2CC3(CC2C1=O)OC(C)CC(C)O3 (mixture of isomers) [I-c-24]	100%	100%	100%	100%	80%	100%	70%	90%	70%					
CCc1cc(C)cc(CC)c1C1=C(O)[C@H]2CC(=NOC(C)C)C[C@H]2C1=O (relative stereo) [I-a-29]	100%	100%	100%	80%	60%	80%	70%	90%	20%					
CCc1cc(C)cc(CC)c1C1=C(OC(=O)C(C)(C)C)C2CC3(COC(C)(C)O3)CC2C1=O (stereo not shown) [I-b-5]	100%	80%	90%	0%	20%	100%	10%	90%	60%					
Cc1cc(C)c(C2=C(OC(=O)C(C)(C)CCl)C3CC(=O)CC3C2=O)c(C)c1 (stereo not shown) [I-b-52]	0%	100%	0%	90%	0%									
COCC(=O)OC1=C(c2c(C)cc(C)cc2C)C(=O)C2CC(=O)CC12 (stereo not shown) [I-b-53]	0%	100%	20%	90%	0%									
Cc1cc(C)c(C2=C(OC(=O)C(C)C)C3CC(=O)CC3C2=O)c(C)c1 (stereo not shown) [I-b-54]	0%	100%	20%	100%	0%									
CCC(C)(C)C(=O)OC1=C(c2c(C)cc(C)cc2C)C(=O)C2CC(=O)CC12 (stereo not shown) [I-b-55]	0%	90%	0%	90%	0%									
Cc1cc(C)c(C2=C(OC(=O)CC(C)C)C3CC(=O)CC3C2=O)c(C)c1 (stereo not shown) [I-b-56]	0%	100%	20%	100%	0%									
CCC(=O)OC1=C(c2c(C)cc(C)cc2C)C(=O)C2CC(=O)CC12 (stereo not shown) [I-b-57]	0%	100%	0%	100%	0%									
C#CCON=C1CC2C(=O)C(c3c(C)cc(C)cc3C)=C(OC(=O)C(C)C)C2C1 (stereo not shown) [I-b-58]	60%	80%	0%	20%	0%									
C#CCON=C1CC2C(=O)C(c3c(C)cc(C)cc3C)=C(OC(=O)C(C)(C)C)C2C1 (stereo not shown) [I-b-59]	80%	80%	20%	0%	0%									
Cc1cc(C)c(C2=C(OC(=O)C(C)(C)C)C3CC(=O)CC3C2=O)c(C)c1 (stereo not shown) [I-b-60]	0%	100%	0%	80%	0%									
CCc1cc(C)cc(C)c1C1=C(OC(=O)C(C)(C)C)C2CC(=O)CC2C1=O (stereo not shown) [I-b-71]	0%	100%	0%	100%	0%									
CCc1cc(C)cc(CC)c1C1=C(OC(=O)OC)[C@H]2C[C@@]3(COC(C)(C)O3)C[C@H]2C1=O [I-c-1]										100%	60%	100%	40%	60%
CCOC(=O)OC1=C(c2c(CC)cc(C)cc2CC)C(=O)C2CC3(CC12)SCCCS3 (stereo not shown) [I-c-16]	80%	90%	0%	30%	30%									
CCOC(=O)OC1=C(c2c(CC)cc(C)cc2CC)C(=O)C2CC(=O)CC12 (stereo not shown) [I-c-17]										40%	100%	30%	90%	0%
CCc1cc(C)cc(CC)c1C1=C(OC(=O)OC)C2CC3(CC2C1=O)SCCCS3 (stereo not shown) [I-c-20]	100%	100%	90%	100%	90%									
CCOC(=O)OC1=C(c2c(CC)cc(C)cc2CC)C(=O)C2CC(=NOC(C)(C)C)CC12 (stereo not shown) [I-c-38]	90%	80%	70%	30%	0%									
CCc1cc(C)cc(CC)c1C1=C(OC(=O)OC)C2CC(=O)CC2C1=O (stereo not shown) [I-c-42]	0%	100%	0%	100%	0%									
CCc1cc(C)cc(CC)c1C1=C(O)[C@H]2CC3(C[C@H]2C1=O)SCCCS3 [I-f-1]										90%	90%	80%	80%	40%
Cc1cc(C)c(C2=C([O-])C3CC4(CC3C2=O)OC(C)CC(C)O4)c(C)c1.[Na+] (stereo not shown) [I-f-3]	90%	90%	90%	80%	0%									
Cc1cc(C)c(C2=C([O-])C3CC4(CC3C2=O)OCCCCO4)c(C)c1.[Na+] (stereo not shown) [I-f-10]	100%	90%	100%	90%	80%									
C=C1CC2C(=O)C(c3c(C)cc(C)cc3C)=C([O-])C2C1.[Na+] (stereo not shown) [I-f-23]	60%	90%	0%	80%	0%									
